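All cell lines were grown in 96-well plates and treated with compound for 48 hours. TGI: total growth inhibition.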
How the values were obtained:
Assay in all cases: growth of human tumour cells (NCI), 48 h
[1] = test system: 786-0 renal
[2] = test system: A498 renal
[3] = test system: A549 NSCLC
[4] = test system: ACHN renal
[5] = test system: CAKI-1 renal
[6] = test system: CCRF-CEM leukemia
[7] = test system: COLO 205 colon
[8] = test system: DU-145 prostate
[9] = test system: EKVX NSCLC
[10] = test system: HCC-2998 colon
[11] = test system: HCT-116 colon
[12] = test system: HCT-15 colon
[13] = test system: HL-60(TB) leukemia
[14] = test system: HOP-62 NSCLC
[15] = test system: HOP-92 NSCLC
[16] = test system: HS 578T breast
[17] = test system: HT29 colon
[18] = test system: IGROV1 ovarian
[19] = test system: K-562 leukemia
[20] = test system: KM12 colon
[21] = test system: LOX IMVI melanoma
[22] = test system: M14 melanoma
[23] = test system: MALME-3M melanoma
[24] = test system: MCF7 breast
[25] = test system: MDA-MB-231 breast
[26] = test system: MDA-MB-435
[27] = test system: MDA-N
[28] = test system: MOLT-4 leukemia
[29] = test system: NCI-H226 lung
[30] = test system: NCI-H23 lung
[31] = test system: NCI-H460 lung
[32] = test system: NCI-H522 lung
[33] = test system: NCI/ADR-RES ovarian
[34] = test system: OVCAR-3 ovarian
[35] = test system: OVCAR-4 ovarian
[36] = test system: OVCAR-5 ovarian
[37] = test system: OVCAR-8 ovarian
[38] = test system: PC-3 prostate
[39] = test system: RPMI-8226 leukemia
[40] = test system: RXF 393 renal
[41] = test system: SF-268 CNS
[42] = test system: SF-295 CNS
[43] = test system: SF-539 CNS
[44] = test system: SK-MEL-28 melanoma
[45] = test system: SK-MEL-5 melanoma
[46] = test system: SK-OV-3 ovarian
[47] = test system: SN12C renal
[48] = test system: SNB-19 CNS
[49] = test system: SNB-75 CNS
[50] = test system: SR leukemia
[51] = test system: SW-620 colon
[52] = test system: T-47D breast
[53] = test system: TK-10 renal
[54] = test system: U251 CNS
[55] = test system: UACC-257 melanoma
[56] = test system: UACC-62 melanoma
[57] = test system: UO-31 renal
[58] = test system: SK-MEL-2 melanoma

CCCCCc1c(Cl)nc(Cl)nc1Cl
TGI [1]: 12.8 µM | TGI [2]: 34.7 µM | TGI [3]: > 92.3 µM | TGI [4]: 77.7 µM | TGI [5]: 8.6 µM | TGI [6]: 0.65 µM | TGI [7]: 27 µM | TGI [8]: 45.5 µM | TGI [9]: 52 µM | TGI [10]: 27 µM | TGI [11]: 14.1 µM | TGI [12]: 29.9 µM | TGI [13]: 5.93 µM | TGI [14]: 39.7 µM | TGI [15]: 15.3 µM | TGI [16]: > 100 µM | TGI [17]: 18.5 µM | TGI [18]: 31.9 µM | TGI [19]: 7.45 µM | TGI [20]: 28.6 µM | TGI [21]: 6.01 µM | TGI [22]: 5.46 µM | TGI [23]: 28.1 µM | TGI [24]: 27.3 µM | TGI [25]: 17.8 µM | TGI [26]: 6.98 µM | TGI [27]: 16.6 µM | TGI [28]: 1.01 µM | TGI [29]: 6.02 µM | TGI [30]: 16 µM | TGI [31]: 51.9 µM | TGI [32]: 6.61 µM | TGI [33]: 46.3 µM | TGI [34]: 30.8 µM | TGI [35]: 43 µM | TGI [36]: 31.1 µM | TGI [37]: 25.9 µM | TGI [38]: 36.9 µM | TGI [39]: 12.3 µM | TGI [40]: 23.7 µM | TGI [41]: 49.2 µM | TGI [42]: 53.7 µM | TGI [43]: 29.9 µM | TGI [44]: 46.5 µM | TGI [45]: 18.1 µM | TGI [46]: 31.8 µM | TGI [47]: 10.8 µM | TGI [48]: 38.9 µM | TGI [49]: 93.1 µM | TGI [50]: 0.86 µM | TGI [51]: 26.2 µM | TGI [52]: 52.2 µM | TGI [53]: 32.2 µM | TGI [54]: 25.1 µM | TGI [55]: 29.7 µM | TGI [56]: 43.3 µM | TGI [57]: 37.9 µM

CC(C)=CCc1ccc2[nH]c3c(c2c1)C(=O)C(=O)C(C)=C3C(O)C(C)O (centres undefined)
TGI [1]: 3.27 µM | TGI [2]: 25.8 µM | TGI [3]: 56.5 µM | TGI [4]: 11.5 µM | TGI [5]: 11.5 µM | TGI [6]: 4.98 µM | TGI [7]: 4.89 µM | TGI [8]: 22.4 µM | TGI [9]: 30.1 µM | TGI [10]: 14.8 µM | TGI [11]: 3.43 µM | TGI [12]: 16.3 µM | TGI [13]: 2.53 µM | TGI [14]: 37.8 µM | TGI [15]: 3.51 µM | TGI [16]: 50.1 µM | TGI [17]: 35.1 µM | TGI [18]: 7.2 µM | TGI [19]: 5.78 µM | TGI [20]: 30.1 µM | TGI [21]: 4.73 µM | TGI [22]: 3.9 µM | TGI [23]: 3.37 µM | TGI [24]: 3.4 µM | TGI [25]: 15.8 µM | TGI [26]: 9.57 µM | TGI [27]: 19.7 µM | TGI [28]: 4.83 µM | TGI [29]: 34.2 µM | TGI [30]: 31.8 µM | TGI [31]: 37.2 µM | TGI [33]: > 85.4 µM | TGI [34]: 13 µM | TGI [35]: 13.2 µM | TGI [36]: 34.2 µM | TGI [37]: 3.91 µM | TGI [38]: 43.4 µM | TGI [39]: 6.17 µM | TGI [40]: 4.68 µM | TGI [41]: 25 µM | TGI [42]: 25 µM | TGI [43]: 34 µM | TGI [58]: > 82.9 µM | TGI [44]: 28.1 µM | TGI [45]: 7.22 µM | TGI [46]: 29.7 µM | TGI [47]: 45.8 µM | TGI [48]: 31 µM | TGI [49]: 34.1 µM | TGI [50]: 12.4 µM | TGI [51]: 4.7 µM | TGI [52]: 6.11 µM | TGI [53]: 4.76 µM | TGI [54]: 13.2 µM | TGI [55]: 3.71 µM | TGI [56]: 11.6 µM | TGI [57]: 2.96 µM

From PubChem BioAssay (NCI)
